From patent US5675007A (priority 1994, dated 1997) come the findings set out here.

For assay [1], the target named is muscarinic receptors ([^3 H]-OXO-M binding). Description: Inhibition of [^3 H]-oxotremorine-M ([^3 H]-OXO-M) binding, rat cerebral cortex. More on the design: species or system rat (male Hooded Lister). The following applies: [^3 H]-OXO-M 1.88 nM, 37° C., geometric mean, n = 2.
Assay [2] addresses muscarinic receptors ([^3 H]-QNB binding). More on the design: species or system rat (male Hooded Lister). Conditions: rat cerebral cortex; [^3 H]-QNB 0.27 nM; geometric mean; n = 2.
Assay [3] is described as follows: Functional studies in vivo: hypothermia (core body temperature). Also on record: species or system mouse (male CD1). Conditions: mouse, 95% CL on next line. The method, then:
(§1) Male mice (CD1, Charles River UK, 25-35 g) were used in the in vivo experiments. Animals were housed in groups of 10 and allowed food and water ad libitum. Two hours prior to the experiment the animals were rehoused in groups of 5 and allowed to acclimatize to their new environment. Each group was assigned one dose of test compound.
(§2) Test compounds or vehicle were administered by either the subcutaneous (sc) or oral (po) routes. Animals were subjectively assessed for signs of salivation and body tremor 15, 30, 45, 60, 90, 120, 150, 180, 240 and 300 minutes post dose, using a scoring system: 0=absent; 1=mild; 2=moderate; 3=severe. Changes in core body temperature, a measure of central activity, were recorded at the same timepoints using a rectal probe (Comark Electronic Thermometer Type 9001 )

Assay [4] is described as follows: Functional studies in vivo: salivation. Conditions: mouse, read-out: Salivation ED50 (dose inducing 50% of the maximum score). Also on record: species or system mouse (male CD1). The method, then: as §1, §2
Assay [5] in a line: Functional studies in vivo: body tremor. More on the design: species or system mouse (male CD1). Conditions: mouse, read-out: Tremor ED50 (dose inducing 50% of the maximum score). On the procedure:
as §1, §2

Molecules are shown by their SMILES.

On to `CO/N=C(\C#N)[C@H]1C[N+]2([O-])CCC1CC2` [Compound X, [R-(Z)]-α-(methoxyimino)-α-(1-azabicyclo[2.2.2]oct-3-yl)acetonitrile-1-oxide], for which the IC50 (commonly the concentration that gives 50% inhibition) in assay [1] is 2.86 µM; in assay [2], 68.7 µM. In addition, the results for the “Hypothermia ED3° (dose inducing 3° fall in core body temperature)” value in assay [3] (oral) and in assay [3] (subcutaneous) were 5.8 mg/kg and 21.3 mg/kg, respectively. The median effective dose (ED50) (usually the dose that gives a 50% effect, or the effect in half of the subjects) was under 0.3 mg/kg in assay [4] (oral); 2.38 mg/kg in assay [4] (sc, subcutaneous, 95% CL on next line); over 30 mg/kg in assay [5] (oral); over 30 mg/kg in assay [5] (sc, subcutaneous).
